# Measurements taken from ChEMBL document CHEMBL5331045, “Recent advances in β-lactamase inhibitor chemotypes and inhibition modes” (Eur J Med Chem, 2022).
# Assays:
# [1] = Binding affinity to beta-lactamase AmpC (unknown origin) assessed as inhibition constant by measuring nitrocefin hydrolysis by spectrometric analysis; set-up: species or system Homo sapiens
# [2] = Binding affinity to Escherichia coli CTX-M-9 assessed as inhibition constant using nitrocefin as substrate by microplate reader analysis
# Beta-lactamase CTX-M-14 = Beta-lactamase CTX-M-14 (Escherichia coli, UniProt Q9L5C7); test: Binding affinity to Escherichia coli CTX-M-14 assessed as inhibition constant using nitrocefin as substrate by microplate reader analysis
# Chain of Beta-lactamase CTX-M-14 (Q9L5C7 whole entry): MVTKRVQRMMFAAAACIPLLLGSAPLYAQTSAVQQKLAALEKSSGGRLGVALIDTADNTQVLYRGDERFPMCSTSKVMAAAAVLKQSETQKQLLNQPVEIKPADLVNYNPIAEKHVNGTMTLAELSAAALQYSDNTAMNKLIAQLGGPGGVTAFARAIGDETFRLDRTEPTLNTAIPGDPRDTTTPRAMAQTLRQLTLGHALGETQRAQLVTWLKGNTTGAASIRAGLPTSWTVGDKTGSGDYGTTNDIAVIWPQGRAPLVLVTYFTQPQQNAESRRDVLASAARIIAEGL
# Beta-lactamase CTX-M-27 = Beta-lactamase CTX-M-27 (Escherichia coli, UniProt Q840M4); test: Binding affinity to Escherichia coli CTX-M-27 assessed as inhibition constant using nitrocefin as substrate by microplate reader analysis
# Chain of Beta-lactamase CTX-M-27 (Q840M4 whole entry): as the sequence (Q9L5C7 whole entry) above, with D242G counted along it
# [3] = Binding affinity to Escherichia coli CTX-M-15 assessed as inhibition constant using nitrocefin as substrate by microplate reader analysis
# Beta-lactamase TEM-1 = Beta-lactamase TEM-1 (Escherichia coli, UniProt Q4GY26); test: Binding affinity to Escherichia coli TEM1 assessed as inhibition constant using nitrocefin as substrate by microplate reader analysis
# Chain of Beta-lactamase TEM-1 (Q4GY26 whole entry): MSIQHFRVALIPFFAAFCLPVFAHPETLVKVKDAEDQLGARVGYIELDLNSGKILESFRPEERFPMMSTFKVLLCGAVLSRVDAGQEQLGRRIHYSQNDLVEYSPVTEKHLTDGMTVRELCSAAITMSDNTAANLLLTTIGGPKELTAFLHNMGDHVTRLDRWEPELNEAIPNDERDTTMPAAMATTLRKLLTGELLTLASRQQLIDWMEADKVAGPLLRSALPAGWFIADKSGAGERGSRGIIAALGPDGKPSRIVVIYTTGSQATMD
# [4] = Binding affinity to Escherichia coli SHV-2 assessed as inhibition constant using nitrocefin as substrate by microplate reader analysis
# [5] = molecular target: Class A carbapenemase KPC-2 (Escherichia coli, UniProt A8DS27); test: Binding affinity to Escherichia coli KPC-2 assessed as inhibition constant using nitrocefin as substrate by microplate reader analysis
# Chain of Class A carbapenemase KPC-2 (A8DS27 whole entry): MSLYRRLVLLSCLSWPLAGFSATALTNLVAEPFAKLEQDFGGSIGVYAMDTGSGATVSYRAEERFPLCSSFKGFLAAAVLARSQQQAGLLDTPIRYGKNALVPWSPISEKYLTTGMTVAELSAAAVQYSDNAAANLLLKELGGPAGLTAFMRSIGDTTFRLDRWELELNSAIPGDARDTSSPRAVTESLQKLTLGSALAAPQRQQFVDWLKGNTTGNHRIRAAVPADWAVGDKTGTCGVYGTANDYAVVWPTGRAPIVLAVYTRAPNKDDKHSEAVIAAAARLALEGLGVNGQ
# Beta-lactamase [6] = molecular target: Beta-lactamase (Escherichia coli K-12, UniProt P00811); test: Binding affinity to Escherichia coli AmpC assessed as inhibition constant using nitrocefin as substrate by microplate reader analysis
# Chain of Beta-lactamase (Escherichia coli K-12, UniProt P00811) (P00811 whole entry): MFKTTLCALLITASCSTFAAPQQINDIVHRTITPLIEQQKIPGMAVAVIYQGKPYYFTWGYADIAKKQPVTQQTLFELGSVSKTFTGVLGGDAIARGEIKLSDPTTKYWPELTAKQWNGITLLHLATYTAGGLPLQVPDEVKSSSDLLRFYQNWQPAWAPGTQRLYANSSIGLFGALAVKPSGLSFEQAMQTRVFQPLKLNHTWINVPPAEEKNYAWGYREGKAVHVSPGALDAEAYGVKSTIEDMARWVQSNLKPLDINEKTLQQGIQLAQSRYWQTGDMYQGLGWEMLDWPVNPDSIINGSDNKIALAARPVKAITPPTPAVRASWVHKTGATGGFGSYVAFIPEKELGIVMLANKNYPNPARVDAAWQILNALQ
# [7] = Binding affinity to Escherichia coli OXA-48 assessed as inhibition constant using nitrocefin as substrate by microplate reader analysis
# [8] = Binding affinity to AmpC (unknown origin) assessed as inhibition constant; set-up: species or system Homo sapiens
# [9] = Binding affinity to N289A (unknown origin) assessed as inhibition constant; set-up: species or system Homo sapiens
# [10] = Binding affinity to TEM1 (unknown origin) assessed as inhibition constant; set-up: species or system Homo sapiens
# [11] = Binding affinity to TEM30 (unknown origin) assessed as inhibition constant; set-up: species or system Homo sapiens
# [12] = Inhibition of Pseudomonas aeruginosa KPC2
# Beta-lactamase [13] = molecular target: Beta-lactamase (Pseudomonas aeruginosa (strain ATCC 15692 / PAO1 / 1C / PRS 101 / LMG12228), UniProt P24735); test: Inhibition of Pseudomonas aeruginosa AmpC
# Chain of Beta-lactamase (Pseudomonas aeruginosa (strain ATCC 15692 / PAO1 / 1C / PRS 101 / LMG12228), UniProt P24735) (P24735 whole entry): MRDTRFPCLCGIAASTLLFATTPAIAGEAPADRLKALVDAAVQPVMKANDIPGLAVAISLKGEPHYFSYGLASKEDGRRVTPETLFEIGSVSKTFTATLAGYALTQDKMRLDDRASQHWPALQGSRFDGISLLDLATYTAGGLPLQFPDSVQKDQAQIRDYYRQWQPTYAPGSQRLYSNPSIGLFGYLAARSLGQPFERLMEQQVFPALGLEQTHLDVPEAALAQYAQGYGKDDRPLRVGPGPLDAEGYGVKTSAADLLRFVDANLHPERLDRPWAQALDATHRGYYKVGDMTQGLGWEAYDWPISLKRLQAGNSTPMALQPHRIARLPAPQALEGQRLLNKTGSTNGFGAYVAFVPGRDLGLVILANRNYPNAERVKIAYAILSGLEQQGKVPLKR
# [14] = Inhibition of Pseudomonas aeruginosa OXA-24
# [15] = Binding affinity to Acinetobacter derived cephalosporinase 7 (D24-K383 residues) assessed as inhibition constant
# [16] = Inhibition of KPC-2 (unknown origin); set-up: species or system Homo sapiens
# Escherichia coli [17] = test: Antimicrobial activity against Escherichia coli expressing TEM1 in presence of piperacillin; format: functional
# Escherichia coli [18] = test: Antimicrobial activity against Escherichia coli expressing TEM10 in presence of piperacillin; format: functional
# Escherichia coli [19] = test: Antimicrobial activity against Escherichia coli expressing CTX-M-15 in presence of piperacillin; format: functional
# Escherichia coli [20] = test: Antimicrobial activity against Escherichia coli expressing KPC-2 in presence of piperacillin; format: functional
# Escherichia coli [21] = test: Antimicrobial activity against Escherichia coli expressing SHV-12 in presence of piperacillin; format: functional
# Escherichia coli [22] = test: Antimicrobial activity against Escherichia coli expressing AmpC in presence of piperacillin; format: functional
# Escherichia coli [23] = test: Antimicrobial activity against Escherichia coli expressing CMY-2 in presence of piperacillin; format: functional
# Escherichia coli [24] = test: Antimicrobial activity against Escherichia coli expressing DHA-1 in presence of piperacillin; format: functional
# Escherichia coli [25] = test: Antimicrobial activity against Escherichia coli expressing OXA-10 in presence of piperacillin; format: functional
# Escherichia coli [26] = test: Antimicrobial activity against Escherichia coli expressing OXA-23 in presence of piperacillin; format: functional
# Escherichia coli [27] = test: Antimicrobial activity against Escherichia coli expressing OXA-40 in presence of piperacillin; format: functional
# Escherichia coli [28] = test: Antimicrobial activity against Escherichia coli expressing OXA-48 in presence of piperacillin; format: functional
# [29] = Inhibition of Escherichia coli beta-lactamase CTX-M-15 using nitrocefin as substrate measured after 20 mins
# [30] = molecular target: Carbapenem-hydrolyzing beta-lactamase KPC (Klebsiella pneumoniae, UniProt Q9F663); test: Inhibition of Klebsiella pneumoniae beta-lactamase KPC-2 using nitrocefin as substrate measured after 20 mins
# Chain of Carbapenem-hydrolyzing beta-lactamase KPC (Q9F663 whole entry): as the sequence (A8DS27 whole entry) above
# [31] = Inhibition of Klebsiella pneumoniae beta-lactamase CMY-2 using nitrocefin as substrate measured after 20 mins
# [32] = Binding affinity to CTX-M-14 (unknown origin) assessed as inhibition constant; set-up: species or system Homo sapiens
# [33] = Binding affinity to KPC-2 (unknown origin) assessed as inhibition constant; set-up: species or system Homo sapiens
# [34] = Inhibition of Enterobacter CTX-M-15 incubated for 15 mins
# [35] = Inhibition of Enterobacter KPC-2 incubated for 15 mins
# [36] = Inhibition of Enterobacter SHV-5 incubated for 15 mins
# [37] = Inhibition of Enterobacter OXA-1 incubated for 15 mins
# [38] = Inhibition of Enterobacter VIM-2 incubated for 15 mins
# [39] = Inhibition of Enterobacter NDM-1 incubated for 15 mins
# [40] = Inhibition of Enterobacter IMP-1 incubated for 15 mins
structure (smiles),measurement,setting,value
O=C(Nc1cccc(-c2nnn[nH]2)c1)c1cccc(F)c1,Ki,[1],2.8 mM
O=C(Nc1cccc(-c2nnn[nH]2)c1)c1cc(C(F)(F)F)cc2[nH]cnc12,Ki,[2],89 nM
same,Ki,Beta-lactamase CTX-M-14,85 nM
same,Ki,Beta-lactamase CTX-M-27,280 nM
same,Ki,[3],250 nM
same,Ki,Beta-lactamase TEM-1,Not Active
same,Ki,[4],25.8 µM
same,Ki,[5],97.3 µM
same,Ki,Beta-lactamase [6],387 µM
same,Ki,[7],478 µM
O=C(O)/C=C/c1cccc([C@H](NC(=O)Cc2cccs2)B(O)O)c1,Ki,[8],10 nM
same,Ki,[9],3 nM
same,Ki,[10],106 nM
same,Ki,[11],3.8 µM
CC1=C[C@H]2CN(C(=O)N2OS(=O)(=O)O)[C@@H]1C(N)=O,IC50,[12],4 nM
same,IC50,Beta-lactamase [13],14 nM
same,IC50,[14],190 nM
O=C(O)c1cn(CB(O)O)nn1,Ki,[15],6.1 µM
same,IC50,[16],4.72 µM
C[C@]12CNC(=O)[C@H]1N1C[C@@H](C2)N(OS(=O)(=O)[O-])C1=O.[Na+],MIC,Escherichia coli [17],4 µg/mL
same,MIC,Escherichia coli [18],4 µg/mL
same,MIC,Escherichia coli [19],4 µg/mL
same,MIC,Escherichia coli [20],4 µg/mL
same,MIC,Escherichia coli [21],4 µg/mL
same,MIC,Escherichia coli [22],4 µg/mL
same,MIC,Escherichia coli [23],2 µg/mL
same,MIC,Escherichia coli [24],4 µg/mL
same,MIC,Escherichia coli [25],4 µg/mL
same,MIC,Escherichia coli [26],4 µg/mL
same,MIC,Escherichia coli [27],8 µg/mL
same,MIC,Escherichia coli [28],4 µg/mL
NS(=O)(=O)C1CC[C@@H]2CN1C(=O)N2OS(=O)(=O)O (stereo partly drawn),IC50,[29],140 nM
same,IC50,[30],44 nM
same,IC50,[31],116 nM
"CC(c1nnn[nH]1)n1cnc2sc3c(c2c1=O)CCCC3 (single isomer, unassigned)",Ki,[32],2.54 mM
same,Ki,[33],195 µM
CCC(=O)N[C@H]1Cc2cccc(C(=O)O)c2OB1O [LEDABORBACTAM],IC50,[34],18 nM
same,IC50,[35],80 nM
same,IC50,[36],368 nM
same,IC50,[37],66 nM
same,IC50,[38],9.04 µM
same,IC50,[39],38.1 µM
same,IC50,[40],> 100 µM
